Data from paper PMC4641600, “Novel Activities of Select NSAID R-Enantiomers against Rac1 and Cdc42 GTPases” (PLoS ONE, 2015).

Key:
Cdc42 [1] = biological target: T1, Cdc42 (Mus musculus, UniProt P60766); assay: GLISA, Swiss 3T3 cells; type: cell-based
T1 construct: endogenous in cells; host or cells: Swiss 3T3

[2] = tested on: migration Rac1/Cdc42 dependent; assay: Migration IC50 (Table F); type: cell-based; details: ketorolac, calculated by GraphPad Prism5; read-out: IC50 migration Rac1/Cdc42 dependent (est)
[3] = IV dose of 30 mg; cited from earlier work
[4] = tested on: Rab2 wt, Rab7 wt, Cdc42 wt, Cdc42Q61L, H-Ras wt, H-RasG12V, Rac1 wt and Rac1Q61L; assay: Primary multiplex screen, BODIPY-FL-GTP binding on bead-bound GTPases (flow cytometry); details: for primary screen outcome: 10 μM compound; for Primary Screen Hit: single dose 10 µM, change in BODIPY-GTP binding on any one GTPase
Rac1 wt = Rac1 wt (Homo sapiens, UniProt P63000); assay: Dose response, BODIPY-GTP binding; details: 10 nM to 100 µM
[5] = tested on: Rac1 membrane localization; assay: Rac1 immunolocalization, OvCa433 cells; type: cell-based, human; details: for Rac1 membrane localization: 300 μM; for Rac PM Localiz.: immunofluorescence quantified using ImageJ
[6] = tested on: OvCa429 and OvCa433 cells; assay: Boyden chamber cell migration assay; type: cell-based, human; details: estimated from limited dose response data; read-out: IC50 migration Rac1/Cdc42 dependent (est)
Rac1 [7] = details: cited from earlier work
Rac1 [8] = biological target: T2, Rac1 (Homo sapiens, UniProt P63000); assay: G-trap flow cytometric effector binding assay, HeLa cells; type: cell-based; details: ketorolac enantiomers
T2 construct: endogenous in cells; host or cells: HeLa

Cdc42 [9] = biological target: T3, Cdc42 (Homo sapiens, UniProt P60953); assay: as above; type: cell-based; details: ketorolac enantiomers, EGF stimulation, read-out: EC50 against Cdc42
T3 construct: endogenous in cells; host or cells: HeLa
T3 sequence (P60953 whole entry): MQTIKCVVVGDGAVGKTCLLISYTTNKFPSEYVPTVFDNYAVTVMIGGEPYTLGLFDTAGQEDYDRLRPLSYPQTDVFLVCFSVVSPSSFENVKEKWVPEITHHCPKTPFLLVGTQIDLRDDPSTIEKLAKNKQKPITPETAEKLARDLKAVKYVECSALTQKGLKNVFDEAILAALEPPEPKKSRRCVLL

Rac1 [10] = biological target: T4, Rac1 (Mus musculus, UniProt P63001); assay: GLISA, Swiss 3T3 cells; type: cell-based
T4 construct: endogenous in cells; host or cells: Swiss 3T3

human COX-1 = biological target: T5, human COX-1 (Homo sapiens, UniProt P23219); assay: Cyclooxygenase assay (CEREP), PGE2 formation; type: biochemical; details: for IC50: recombinant enzyme, 4 μM arachidonic acid
T5 construct: purchased CEREP Laboratories (contract assay); host or cells: Sf-9
T5 sequence (P23219 24-599): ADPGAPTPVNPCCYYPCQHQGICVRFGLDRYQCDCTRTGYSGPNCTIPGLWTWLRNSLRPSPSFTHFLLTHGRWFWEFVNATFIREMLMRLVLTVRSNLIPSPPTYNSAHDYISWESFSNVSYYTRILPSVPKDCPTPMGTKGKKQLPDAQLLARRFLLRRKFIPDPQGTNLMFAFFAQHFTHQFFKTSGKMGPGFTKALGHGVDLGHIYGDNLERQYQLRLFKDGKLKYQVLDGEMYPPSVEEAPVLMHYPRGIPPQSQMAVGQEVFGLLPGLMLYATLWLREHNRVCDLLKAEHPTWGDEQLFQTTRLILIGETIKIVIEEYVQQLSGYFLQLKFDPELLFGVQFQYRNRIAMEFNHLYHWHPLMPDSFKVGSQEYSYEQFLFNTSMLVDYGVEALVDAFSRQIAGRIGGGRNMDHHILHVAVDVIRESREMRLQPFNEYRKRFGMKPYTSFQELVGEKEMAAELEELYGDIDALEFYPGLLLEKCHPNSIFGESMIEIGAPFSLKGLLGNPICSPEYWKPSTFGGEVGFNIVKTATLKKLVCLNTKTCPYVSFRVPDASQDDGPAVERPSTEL

human COX-2 = biological target: T6, human COX-2 (Homo sapiens, UniProt P35354); assay: Cyclooxygenase assay (CEREP), PGE2 formation; type: biochemical; details: recombinant enzyme, 4 μM arachidonic acid
T6 construct: purchased CEREP Laboratories (contract assay); host or cells: Sf-9
T6 sequence (P35354 18-604): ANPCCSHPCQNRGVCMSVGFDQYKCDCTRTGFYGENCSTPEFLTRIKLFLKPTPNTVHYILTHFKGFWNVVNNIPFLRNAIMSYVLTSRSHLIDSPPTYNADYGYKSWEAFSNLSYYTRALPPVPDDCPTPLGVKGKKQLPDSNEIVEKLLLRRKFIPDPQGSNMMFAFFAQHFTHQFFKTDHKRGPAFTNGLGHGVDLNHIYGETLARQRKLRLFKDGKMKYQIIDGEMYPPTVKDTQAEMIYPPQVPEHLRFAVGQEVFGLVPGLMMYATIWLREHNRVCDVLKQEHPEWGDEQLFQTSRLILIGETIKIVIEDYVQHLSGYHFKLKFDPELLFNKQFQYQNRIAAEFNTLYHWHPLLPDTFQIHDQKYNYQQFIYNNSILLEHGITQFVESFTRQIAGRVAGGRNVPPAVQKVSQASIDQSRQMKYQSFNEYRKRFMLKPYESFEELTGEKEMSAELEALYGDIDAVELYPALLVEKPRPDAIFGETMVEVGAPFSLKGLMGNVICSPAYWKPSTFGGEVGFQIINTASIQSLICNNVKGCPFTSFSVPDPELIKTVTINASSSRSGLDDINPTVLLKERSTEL

purified ovine COX-1 = tested on: purified ovine COX-1; parameters: method as in ref 14 (a number printed in a supplementary file, which may have a reference list of its own: not looked up in the article's list); details: purified ovine enzyme; cited from earlier work
purified ovine COX-2 = tested on: purified ovine COX-2; parameters: method as in ref 14 (a number printed in a supplementary file, which may have a reference list of its own: not looked up in the article's list); details: purified ovine enzyme; cited from earlier work
COX-2 = tested on: COX-2; parameters: method as in ref 15 (a number printed in a supplementary file, which may have a reference list of its own: not looked up in the article's list); details: ovine seminal vesicles or human whole blood; cited from earlier work
Cdc42 wt = Cdc42 wt (Homo sapiens, UniProt P60953); assay: Dose response, BODIPY-GTP binding; details: 10 nM to 100 µM
Cdc42 wt, sequence (P60953 whole entry): as the sequence (P60953 whole entry) above

[11] = biological target: Cdc42Q61L activating mutant (Homo sapiens, UniProt P60953, Q61L); assay: Dose response, BODIPY-GTP binding; details: 10 nM to 100 µM; read-out: Cdc42 (act) EC50
Cdc42Q61L activating mutant, sequence (P60953 whole entry Q61L): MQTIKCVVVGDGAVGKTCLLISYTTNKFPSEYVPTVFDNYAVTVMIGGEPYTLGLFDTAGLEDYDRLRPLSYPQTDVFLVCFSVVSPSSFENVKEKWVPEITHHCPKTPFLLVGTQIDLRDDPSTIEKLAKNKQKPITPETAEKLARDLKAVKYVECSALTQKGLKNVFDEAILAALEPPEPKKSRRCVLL

H-Ras wt = H-Ras wt (Homo sapiens, UniProt P01112); assay: Dose response, BODIPY-GTP binding; details: 10 nM to 100 µM
Method: (§1) For multiplex analyses of small GTPases, 4 μm diameter glutathione-beads (GSH-beads) distinguished by seven different intensities of red fluorescence were used according to our previously described protocols. The GST-GTPases included the following eight Ras-related small GTPases: Rab2 wt, Rab7 wt, Cdc42 wt, Cdc42Q61L activating mutant, H-Ras wt, H-RasG12V, Rac1 wt and Rac1Q61L activating mutant. Briefly, Prestwick Chemical Library® compounds were tested at 10 μM compound and 1% DMSO final concentrations. After a 10 min pre-incubation with the compound BODIPY- FL-GTP (100 nM final) was added to each well and bead associated fluorescence was measured. Sample analysis was conducted with a HyperCyt® high throughput flow cytometry platform. Flow cytometric light scatter at 488 nm and fluorescence emission at 530 +/− 20 nm (FL1) and 665 +/− 10 nm (FL8) were collected on a Cyan ADP flow cytometer (Beckman Coulter, Fullerton, CA). IDLQuery software was used to determine the compound activity in each well. Gating based on forward scatter (FS) and side scatter (SS) parameters was used to identify singlet bead populations. Gating based on FL8 emission distinguishes the beads coated with different proteins, and the median FL1 fluorescence per bead population were calculated. A compound was considered a “potential active” if the change in BODIPY-FL-GTP binding differed greater than 20% from that measured in DMSO treated controls.
(§2) Test compounds identified for follow-up after the primary screen were tested at dilutions ranging from 10 nM to 100 μM final concentration against individual GTPases in multiplex and single-plex assays. Compounds tested in dose response assays were serially diluted 1:3 a total of eight times from a starting concentration of 10 mM giving a 9-point dilution series in DMSO.
(§3) bConfirmatory screens entailed dose response assays conducted in a multiplex format with eight GTPases tested as for primary screen. BODIPY-GTP-binding activity was
(§4) measured in the presence of 10 nM to 100 µM of each of 11 test compounds (4 primary screen hits and 7 additional NSAIDs considered to have chemical similarity to GTPase
(§5) active compounds). GST-GFP coated beads served as a control to detect non-specific dissociation or denaturation caused by compound addition–none of the tested NSAIDs had
(§6) any effect on bead-GST-protein binding. EC50 values were determined using Prism to determine dose response fits as shown in Figure 1 of main text; fits have R2 > 0.9. Active
(§7) compounds based on same definition used as in primary screena. […]

H-RasG12V = H-RasG12V (Homo sapiens, UniProt P01112, G12V); assay: Dose response, BODIPY-GTP binding; details: 10 nM to 100 µM
Method: as §1, §2, §3, §4, §5, §6, §7
(§8) ‡A well-characterized selective Cdc42 inhibitor served as a positive control.

Rab2 = Rab2 (Homo sapiens, UniProt P61019); assay: Dose response, BODIPY-GTP binding; details: 10 nM to 100 µM
Rab2, sequence (P61019 whole entry, species assumed): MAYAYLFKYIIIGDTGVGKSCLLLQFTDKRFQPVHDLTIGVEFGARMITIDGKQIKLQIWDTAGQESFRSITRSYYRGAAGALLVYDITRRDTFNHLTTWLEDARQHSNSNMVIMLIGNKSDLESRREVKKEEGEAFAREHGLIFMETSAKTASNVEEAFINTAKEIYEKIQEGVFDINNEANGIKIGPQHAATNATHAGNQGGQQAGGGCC

Rab7 = Rab7 (Homo sapiens, UniProt P51149); assay: Dose response, BODIPY-GTP binding; details: 10 nM to 100 µM
Rab7, sequence (P51149 whole entry, species assumed): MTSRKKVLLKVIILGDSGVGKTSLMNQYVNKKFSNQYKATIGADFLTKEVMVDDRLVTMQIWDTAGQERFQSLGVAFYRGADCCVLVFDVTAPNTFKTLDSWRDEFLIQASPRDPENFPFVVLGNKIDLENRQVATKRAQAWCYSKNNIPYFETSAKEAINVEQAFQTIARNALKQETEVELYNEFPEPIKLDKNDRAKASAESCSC

Ras-related GTPases = assay: Confirmatory dose response assays on eight Ras-related GTPases; type: binding; details: for activity against the GTPases in confirmatory dose response assays (words): 10 nM to 100 µM
Method: as §1, §2, §3, §4, §5, §6, §7, §8

[12] = tested on: Tiam1 membrane localization; assay: Tiam1 immunolocalization, OvCa433 cells; type: cell-based, human
Method: OvCa433 were plated on coverslips, treated with 300 μM NSAIDs for 1 h, fixed with 3% paraformaldehyde and immunostained for Rac1 or Tiam1. Actin was visualized with rhodamine phalloidin from Invitrogen (F432). Cells were imaged on a Zeiss LSM510 using a 63x objective and quantified using Image J.
Rac1 and Tiam1 antibodies were confirmed in our hands to recognize single protein species of the predicted molecular weight by immunoblot.

[13] = tested on: Rac1 and Tiam1 protein levels; assay: Immunoblot of protein levels; type: cell-based, human
Method: Cells were stimulated with EGF at a final concentration of 1 nM for 10 min. Cells were lysed in a RIPA buffer consisting of 50 mM Tris pH 7.4, 1% NP-40, 0.25% sodium deoxycholate, 150 mM NaCl, 1 mM EDTA, 1 mM PMSF, 1 mM sodium vanadate, 10 mM sodium fluoride, 1 μg/mL each of pepstatin, aprotinin and leupeptin, 10 mM sodium pyrophosphate and 10 mM beta-glycerophosphate.
N = 3. See also Figure D in S1 File for time dependent loss of Rac1 membrane localization. N = 3 (B) Quantification of image intensity using Image J of 3 representative confocal images as shown in panel (A) containing 20–30 cells/field normalized to actin and untreated controls. (C) Western blot analyses of lysates from cells treated with 300 μM compound as indicated for 24 h as compared to untreated controls. […] Blots were probed for Tiam1 (200 kDa), GAPDH (37 kDa), Rac1 (20 kDa), as a loading control. (D) Quantification of image intensity using Image J. Each marker was normalized to GAPDH and untreated controls. N = 3.

[14] = biological target: Rac1Q61L activating mutant (Homo sapiens, UniProt P63000, Q61L); assay: Dose response, BODIPY-GTP binding; details: 10 nM to 100 µM; read-out: Rac1 (act) EC50

T1 sequence (P60766 whole entry): as the sequence (P60953 whole entry) above

O=C(c1ccccc1)c1ccc2n1CCC2C(=O)O (racemic) [racemic ketorolac, ketorolac]
effect on Cdc42 relative to R-ketorolac (Cdc42 [1]; at 10 μM): approximately half the effect | IC50 [2]: 34 µM | Cmax [3]: 13.7 µM

CC(C(=O)O)c1cccc(Oc2ccccc2)c1 (stereo not shown) [Fenoprofen]
primary screen outcome [4]: positive | Primary Screen Hit [4]: Active | Rac1 wt EC50 (Rac1 wt): Inactive | Rac1 membrane localization [5]: did not alter

CCN(CC)CCCC(C)Nc1nc(C)cc(Nc2ccc3nc(C)cc(N)c3c2)n1 (stereo not shown) [NSC23766]
IC50 [6]: < 30 µM | IC50 (Rac1 [7]): […]

O=C(c1ccccc1)c1ccc2n1CC[C@H]2C(=O)O [R-ketorolac]
EC50 (Rac1 [8]; EGF stimulation, read-out: EC50 against Rac1): 0.574 µM | EC50 (Cdc42 [9]): 1.07 µM | dose of maximal inhibitory activity against Rac1 (Rac1 [10]; 1 h preincubation, EGF stimulation): 50 µM | dose of maximal inhibition of Cdc42 activation (Cdc42 [1]; 1 h pretreatment, EGF stimulation): 10 µM | IC50 (human COX-1): 0.99 µM | IC50 (human COX-2): > 100 µM | IC50 [2]: 7 µM | COX-1 IC50 Previously Published (purified ovine COX-1): Not sig | COX-2 IC50 Previously Published (purified ovine COX-2): Not sig | COX-2 IC50 Previously Published (COX-2): Not sig

CC(C)Cc1ccc([C@H](C)C(=O)O)cc1 [S-(+)-Ibuprofen, (S)-(+)-Ibuprofen]
primary screen outcome [4]: positive | Primary Screen Hit [4]: Active | Cdc42 wt EC50 (Cdc42 wt): inactive | EC50 [11]: 6.41 µM | H-Ras wt EC50 (H-Ras wt): inactive | H-Ras (act) EC50 (H-RasG12V): inactive | Rac PM Localiz. ([5]; assays performed with 0.1% DMSO): 78%

O=C(c1ccccc1)c1ccc2n1CC[C@@H]2C(=O)O [S-ketorolac]
efficacy against Rac1 (Rac1 [8]): < 50% | EC50 (Cdc42 [9]): > 10 µM | inhibition of Rac1 (Rac1 [10]; at 50 μM): non-inhibitory | inhibition of Cdc42 (Cdc42 [1]; at 10 μM): non-inhibitory | eudismic ratio (EC50/EC50) (human COX-1; for cyclooxygenases, S-enantiomer relative to R-enantiomer): 100 | IC50 (human COX-1): < 0.01 µM | IC50 (human COX-2): 0.085 µM | IC50 [2]: > 100 µM

COc1ccc2cc([C@H](C)C(=O)O)ccc2c1 [S-naproxen]
H-Ras wt EC50 (H-Ras wt): inactive | H-Ras (act) EC50 (H-RasG12V): inactive | Rab2 EC50 (Rab2): inactive | Rab7 EC50 (Rab7): inactive | times less active than the R-enantiomer (Ras-related GTPases): 10–20 times | activity against the GTPases in confirmatory dose response assays (words) (Ras-related GTPases): varying activity levels | Rac1 membrane localization [5]: no effect | Rac PM Localiz. [5]: 87% | Tiam1 membrane localization ([12]; 300 μM): only slightly reduced | Tiam1 GEF PM localiz. ([12]; immunofluorescence quantified using ImageJ): 65% | total Rac1 or Tiam1 protein levels ([13]; 300 μM, 24 h, immunoblot): did not alter | Rac protein expression ([13]; immunoblot analysis): No change

CSc1ccc(/C=C2/C(C)=C(CC(=O)O)c3cc(F)ccc32)cc1 [Sulindac sulfide]
EC50 (Rac1 wt): 54 µM | EC50 [14]: 53 µM | EC50 (Cdc42 wt): > 100 µM | EC50 [11]: 48.6 µM | H-Ras wt EC50 (H-Ras wt): inactive | H-Ras (act) EC50 (H-RasG12V): inactive | Rab2 EC50 (Rab2): inactive | Rab7 EC50 (Rab7): inactive | activity against the GTPases in confirmatory dose response assays (words) (Ras-related GTPases): varying activity levels
